In PubChem BioAssay AID1745844 (Carcinogenic Potency Database (CPDB), 2022) one finds TD50 and carcinogen call data, which are given here for 4 molecules.

The subject of this data set is rodent lifetime carcinogenesis bioassay, tumor incidence TD50. Description: chronic cancer bioassays in animals – CPDB, compiled studies (AID 1745844).

Activity calls are given as the source filed them. The rule behind the calls is not given here.

Consider `Clc1cccc(-c2ccc(Cl)c(Cl)c2Cl)c1Cl`, for which the TD50 is 64.6 mg/kg/day (mouse, strain BALB/cJ, males, in feed, site: liver, lesion: hepatoma, dosed 26 weeks, study length 47 weeks); 9.58 mg/kg/day (mouse, strain BALB/cJ, males, in feed, site: liver, lesion: hepatoma, dosed 47 weeks, study length 47 weeks); 34.8 mg/kg/day (rat, strain Fischer 344, females, in feed, site: liver, lesion: adenoma, NOS, dosed 105 weeks, study length 105 weeks); 5.94 mg/kg/day (rat, strain Fischer 344, males, in feed, site: all sites, lesion: leukemia + lymphoma, dosed 105 weeks, study length 105 weeks); 6.75 mg/kg/day (rat, strain Fischer 344, males, in feed, site: all sites, lesion: leukemia, dosed 105 weeks, study length 105 weeks); 3.23 mg/kg/day (rat, strain Fischer 344, males, in feed, site: any site (literature study), lesion: several types, types named in the paper, dosed 105 weeks, study length 105 weeks). The TD50 is 34.6 mg/kg/day (rat, strain Fischer 344, males, in feed, site: cecum + jejunum + stomach, lesion: adenocarcinoma, NOS, dosed 105 weeks, study length 105 weeks); 15.1 mg/kg/day (rat, strain Fischer 344, males, in feed, site: liver, lesion: adenoma, NOS + hepatocellular carcinoma, dosed 105 weeks, study length 105 weeks); 20.8 mg/kg/day (rat, strain Fischer 344, males, in feed, site: liver, lesion: hepatocellular adenoma + hepatocellular carcinoma + neoplastic nodule, dosed 105 weeks, study length 105 weeks); 15.3 mg/kg/day (rat, strain Sprague-Dawley, females, in feed, site: liver, lesion: cholangioma, dosed 104 weeks, study length 104 weeks); 3.07 mg/kg/day (rat, strain Sprague-Dawley, females, in feed, site: liver, lesion: hepatocellular adenoma, dosed 104 weeks, study length 104 weeks); 28.6 mg/kg/day (rat, strain Sprague-Dawley, females, in feed, site: liver, lesion: hepatocellular carcinoma, dosed 104 weeks, study length 104 weeks). In addition, the TD50 (rat, strain Sprague-Dawley, females, in feed, site: liver, lesion: several types, types named in the paper, dosed 104 weeks, study length 104 weeks) was 2.82 mg/kg/day; the TD50 (rat, strain Sprague-Dawley, males, in feed, site: liver, lesion: several types, types named in the paper, dosed 104 weeks, study length 104 weeks) worked out at 55.1 mg/kg/day; the TD50 (rat, strain Sprague-Dawley, males, in feed, site: thyroid gland, lesion: follicular-cell adenoma, dosed 104 weeks, study length 104 weeks) was determined as 20.2 mg/kg/day; the TD50 (rat, strain Sprague-Dawley, males, in feed, site: thyroid gland, lesion: follicular-cell carcinoma, dosed 104 weeks, study length 104 weeks) is 89 mg/kg/day; the TD50 (rat, strain Sprague-Dawley, males, in feed, site: thyroid gland, lesion: several types, types named in the paper, dosed 104 weeks, study length 104 weeks) was 16.1 mg/kg/day. Moreover, the carcinogen call (rat, strain Fischer 344, females, in feed, site: stomach, lesion: adenocarcinoma, NOS, dosed 105 weeks, study length 105 weeks) is “a”.

As to `CCN(N=O)C(=O)NCC(C)=O`, the TD50 is 2.19 mg/kg/day (hamster, strain Syrian Golden, females, by gavage, site: forestomach, lesion: carcinoma, dosed 30 weeks, study length 85 weeks); 0.983 mg/kg/day (hamster, strain Syrian Golden, females, by gavage, site: forestomach, lesion: several types, types named in the paper, dosed 30 weeks, study length 85 weeks); 0.394 mg/kg/day (hamster, strain Syrian Golden, females, by gavage, site: spleen, lesion: all vascular tumors, dosed 30 weeks, study length 85 weeks); 1.92 mg/kg/day (hamster, strain Syrian Golden, males, by gavage, site: forestomach, lesion: carcinoma, dosed 30 weeks, study length 85 weeks); 0.506 mg/kg/day (hamster, strain Syrian Golden, males, by gavage, site: forestomach, lesion: several types, types named in the paper, dosed 30 weeks, study length 85 weeks); 1.1 mg/kg/day (hamster, strain Syrian Golden, males, by gavage, site: liver, lesion: cholangioma, dosed 30 weeks, study length 85 weeks). The TD50 (hamster, strain Syrian Golden, males, by gavage, site: spleen, lesion: hemangiosarcoma, dosed 30 weeks, study length 85 weeks) is 0.865 mg/kg/day; the TD50 (rat, strain Fischer 344, females, by gavage, site: lung, lesion: one or several types, types not named, dosed 30 weeks, study length 104 weeks) is 0.873 mg/kg/day; the TD50 (rat, strain Fischer 344, females, by gavage, site: mammary tissue, wider than the gland, lesion: carcinoma, dosed 30 weeks, study length 104 weeks) is 0.192 mg/kg/day; the TD50 (rat, strain Fischer 344, females, by gavage, site: nervous system, lesion: one or several types, types not named, dosed 30 weeks, study length 104 weeks) is 1.66 mg/kg/day; the TD50 (rat, strain Fischer 344, females, by gavage, site: uterus, lesion: one or several types, types not named, dosed 30 weeks, study length 104 weeks) is 1.84 mg/kg/day; the TD50 (rat, strain Fischer 344, females, in drinking water, site: colon, lesion: one or several types, types not named, dosed 30 weeks, study length 104 weeks) is 1.13 mg/kg/day. Moreover, the TD50 by setting is: (rat, strain Fischer 344, females, in drinking water, site: liver, lesion: one or several types, types not named, dosed 30 weeks, study length 104 weeks) 5.53 mg/kg/day; (rat, strain Fischer 344, females, in drinking water, site: lung, lesion: one or several types, types not named, dosed 30 weeks, study length 104 weeks) 0.885 mg/kg/day; (rat, strain Fischer 344, females, in drinking water, site: mammary tissue, wider than the gland, lesion: carcinoma, dosed 30 weeks, study length 104 weeks) 0.748 mg/kg/day; (rat, strain Fischer 344, females, in drinking water, site: nervous system, lesion: one or several types, types not named, dosed 30 weeks, study length 104 weeks) 0.605 mg/kg/day; (rat, strain Fischer 344, females, in drinking water, site: skin, lesion: one or several types, types not named, dosed 30 weeks, study length 104 weeks) 1.79 mg/kg/day; (rat, strain Fischer 344, females, in drinking water, site: thyroid gland, lesion: follicular-cell tumor, dosed 30 weeks, study length 104 weeks) 0.804 mg/kg/day. The TD50 was 1.49 mg/kg/day (rat, strain Fischer 344, females, in drinking water, site: uterus, lesion: one or several types, types not named, dosed 30 weeks, study length 104 weeks); 0.499 mg/kg/day (rat, strain Fischer 344, males, by gavage, site: Zymbal's gland, lesion: one or several types, types not named, dosed 30 weeks, study length 104 weeks); 0.562 mg/kg/day (rat, strain Fischer 344, males, by gavage, site: colon, lesion: one or several types, types not named, dosed 30 weeks, study length 104 weeks); 0.861 mg/kg/day (rat, strain Fischer 344, males, by gavage, site: forestomach, lesion: one or several types, types not named, dosed 30 weeks, study length 104 weeks); 3.39 mg/kg/day (rat, strain Fischer 344, males, by gavage, site: liver, lesion: one or several types, types not named, dosed 30 weeks, study length 104 weeks); 1.37 mg/kg/day (rat, strain Fischer 344, males, by gavage, site: nervous system, lesion: one or several types, types not named, dosed 30 weeks, study length 104 weeks). For the same molecule, the TD50 was 0.767 mg/kg/day (rat, strain Fischer 344, males, by gavage, site: thyroid gland, lesion: follicular-cell tumor, dosed 30 weeks, study length 104 weeks); 0.225 mg/kg/day (rat, strain Fischer 344, males, by gavage, site: tunica vaginalis, lesion: mesothelioma, dosed 30 weeks, study length 104 weeks); 1.13 mg/kg/day (rat, strain Fischer 344, males, in drinking water, site: Zymbal's gland, lesion: one or several types, types not named, dosed 30 weeks, study length 104 weeks); 0.524 mg/kg/day (rat, strain Fischer 344, males, in drinking water, site: colon, lesion: one or several types, types not named, dosed 30 weeks, study length 104 weeks); 0.231 mg/kg/day (rat, strain Fischer 344, males, in drinking water, site: lung, lesion: one or several types, types not named, dosed 30 weeks, study length 104 weeks); 0.127 mg/kg/day (rat, strain Fischer 344, males, in drinking water, site: nervous system, lesion: one or several types, types not named, dosed 30 weeks, study length 104 weeks). Moreover, the TD50 reads like this: (rat, strain Fischer 344, males, in drinking water, site: skin, lesion: one or several types, types not named, dosed 30 weeks, study length 104 weeks) 0.982 mg/kg/day; (rat, strain Fischer 344, males, in drinking water, site: tunica vaginalis, lesion: mesothelioma, dosed 30 weeks, study length 104 weeks) 0.264 mg/kg/day. In addition, where the note is “rat, strain Fischer 344, males, by gavage, site: lung, lesion: one or several types, types not named, dosed 30 weeks, study length 104 weeks”, the carcinogen call was “positive”.

Take `CC(C)(CCCOc1ccc(OCCCC(C)(C)C(=O)O)c(-c2ccccc2)c1)C(=O)O`: the TD50 reads like this: (mouse, strain B6C3F1, females, in feed, site: liver, lesion: hepatocellular adenoma, dosed 104 weeks, study length 104 weeks) 90.6 mg/kg/day; (mouse, strain B6C3F1, females, in feed, site: liver, lesion: hepatocellular carcinoma, dosed 104 weeks, study length 104 weeks) 402 mg/kg/day; (mouse, strain B6C3F1, females, in feed, site: liver, lesion: several types, types named in the paper, dosed 104 weeks, study length 104 weeks) 72.3 mg/kg/day; (mouse, strain B6C3F1, males, in feed, site: liver, lesion: hepatocellular adenoma, dosed 104 weeks, study length 104 weeks) 107 mg/kg/day; (mouse, strain B6C3F1, males, in feed, site: liver, lesion: hepatocellular carcinoma, dosed 104 weeks, study length 104 weeks) 167 mg/kg/day; (mouse, strain B6C3F1, males, in feed, site: liver, lesion: several types, types named in the paper, dosed 104 weeks, study length 104 weeks) 45 mg/kg/day.

For the molecule `CC[C@]1(O)C[C@@H]2CN(CCc3c([nH]c4ccccc34)[C@@](C(=O)OC)(c3cc4c(cc3OC)N(C)[C@H]3[C@@](O)(C(=O)OC)[C@H](OC(C)=O)[C@]5(CC)C=CCN6CC[C@]43[C@@H]65)C2)C1`, the carcinogen call (rat, strain BR 46, males, i.v., site: any site (literature study), lesion: several types, types named in the paper, dosed 52 weeks, study length 104 weeks) is “negative (inactive)”.

What is called TD50 is the dose at which the toxic effect under study appears in half of the subjects.
